The test system of this experiment is cholesterol in lean tissue and plasma. The experiment is described as follows: Lamb trials: cholesterol in lean tissue and plasma. The class given is in vivo, lambs (sheep). An excerpt:
The lambs used in Trial 1 consisted of medium-frame crossbred wethers and ewes weighing 26 to 31 kg. The lambs used in Trial 2 consisted of medium-framced crossbred rams weighing 18 to 25 kg. Each animal was raised as a single. The lambs were housed in a temperature controlled room in individual pens with nipple waterers. When received, the lamps were vaccinated for enterotoxemia. They were allowed to adjust to the pens and the environment for 10 days. One day before the trial began, the lambs were sheared and placed on their respective dietary treatments. The lamps were allotted blocking by weight and sex into two dietary treatment groups. Growth and feed consumption were measured bi-weekly. All lamb weights were taken after a 12 to 16 hour fast. The animals were slaughtered at 50 kg in the Iowa State University Meat laboratory facilities at Ames, Iowa. At slaughter, the lamb's internal organs and wool were weighed and sampled, loin eye area and back fat measured, and carcasses separated into fat, lean, and bone.
The SMB (soybean meal-containing) and the CGM (corn-gluten-containing) diets (compositions given in Table A) were fed twice per day in quantities ensuring that feed was before the lambs at all times. The diets were calculated to be equivalent to each other with respect to metabolizable protein, ether extract, fiber, and minerals with the exception of calcium and phosphorus. […] The CGM diet was calculated to contain slightly more energy (TDN 81.7 vs. 79.0, NEm 1.88 v. 1.86, Neg. 1.23 vs. 1.22). […] The soybean meal ingredient contained about 3.5 wt % leucine, while the corn gluten meal ingredient contained about 15 wt % leucine. The CGM diet was therefore higher in leucine than the SBM diet, containing an estimated 16 wt % leucine as compared with an estimated 8 wt % leucine based on total crude protein in the diet.
^(8) Amount of cholesterol in lean tissue (ng/mg) and plasma (ng/ml).
^(1)- (8) See Table B, except cholesterol data is for lean tissue

Turning to `CC(C)CC(=O)C(=O)O` [KIC, alpha-ketoisocaproate], the “CHOLESTEROL PLASMA: amount of cholesterol in plasma” value came to 32 ng/mL (Trial 1, CGM diet, 1% KIC (0%: 33)) and 23 ng/mL (Trial 1, SBM diet, 1% KIC (0%: 32)). Moreover, the “CHOLESTEROL TISSUE: amount of cholesterol in lean tissue” value reads like this: (Trial 1, CGM diet, 1% KIC (0%: 40)) 32 ng/mg; (Trial 1, SBM diet, 1% KIC (0%: 80)) 44 ng/mg. Moreover, the “CHOLESTEROL: lean tissue” value was determined as 81.2 ng/mg (Trial 2, CGM diet, 1% KIC (0%: 92.2), * p<.05) and 83.2 ng/mg (Trial 2, SBM diet, 1% KIC (0%: 75.2)).

Source of the values: patent US4835185A, “Immunomodulator for improving commercial performance of domestic animals” (Iowa State University Research Foundation, Inc., priority 1987, dated 1989).
